Measurements as given in PMC10649961, “Novel Mitochondria-Targeted Amphiphilic Aminophosphonium Salts and Lipids Nanoparticles: Synthesis, Antitumor Activity and Toxicity” (Nanomaterials, 2023).
Like-named read-outs stand apart in the source and are kept apart here.

Key:
Hep G2 [1] = conditions: calculated relative to the cell line Chang liver (b)
[2] = test system: Bacillus cereus ATCC 10702 NCTC 8035; assay: Antimicrobial activity, serial microdilutions, Bc; assay type: cell-based; conditions: Bacillus cereus; for MIC: Bc, read-out: Minimum Inhibitory Concentration (MIC); for MBC: read-out: Minimum bactericidal and fungicidal concentrations (MBC, MFC)
Protocol: (§1) The antimicrobial activity of test compounds was determined by serial microdilutions in 96-well plates using Mueller-Hinton broth for bacterial culture and Sabouraud broth for yeast culture. Cultures of Gram-positive bacteria were used in the experiment: Staphylococcus aureus ATCC 6538 P FDA 209P, Bacillus cereus ATCC 10702 NCTC 8035, Enterococcus faecalis ATCC 29212; Gram-negative bacteria: Escherichia coli ATCC 25922, Pseudomonas aeruginosa ATCC 9027; and yeast: Candida albicans ATCC 10231, purchased from the State Collection of Pathogenic Microorganisms and Cell Cultures “SCPM-Obolensk” (Obolensk, Russia). Methicillin-resistant strains of S. aureus (MRSA) were isolated from patients with chronic tonsillitis (MRSA-1) and sinusitis (MRSA-2) in the bacteriological laboratory of the Republican Clinical Hospital (Kazan, Russia). The experiments were carried out in triplicate.

T98G [3] = assay: cells; conditions: Homo sapiens, 48 h, read-out: Cytotoxic Effects (IC50)
MRSA-2 = assay: Antimicrobial activity, serial microdilutions, MRSA-2; assay type: cell-based, S. aureus; conditions: Staphylococcus aureus; for MIC: read-out: Minimum Inhibitory Concentration (MIC); for MBC: read-out: Minimum bactericidal and fungicidal concentrations (MBC, MFC)
Protocol: as §1

PC3 [4] = conditions: calculated relative to the cell line Chang liver (b)
A549 [5] = assay: cells; conditions: Homo sapiens, A549, 48 h, read-out: Cytotoxic Effects (IC50)
T98G [6] = conditions: calculated relative to the cell line Chang liver (b)
[7] = test system: Candida albicans ATCC 10231; assay: Antimicrobial activity, serial microdilutions, Ca; assay type: cell-based; design: key to Minimum Inhibitory Concentration (MIC) / Minimum bactericidal and fungicidal concentrations (MBC, MFC): – means non-active
Protocol: as §1

M-HeLa [8] = conditions: calculated relative to the cell line Chang liver (b)
M-HeLa [9] = assay: cells; conditions: Homo sapiens, 48 h, read-out: Cytotoxic Effects (IC50)
MRSA-1 = assay: Antimicrobial activity, serial microdilutions, MRSA-1; assay type: cell-based, S. aureus; conditions: Staphylococcus aureus; for MIC: read-out: Minimum Inhibitory Concentration (MIC); for MBC: read-out: Minimum bactericidal and fungicidal concentrations (MBC, MFC)
Protocol: as §1

[10] = test system: Enterococcus faecalis ATCC 29212; assay: Antimicrobial activity, serial microdilutions, Ef; assay type: cell-based; conditions: Enterococcus faecalis; for MIC: ATCC29212, read-out: Minimum Inhibitory Concentration (MIC); for MBC: ATCC29212, read-out: Minimum bactericidal and fungicidal concentrations (MBC, MFC)
Protocol: as §1

PANC-1 [11] = conditions: calculated relative to the cell line Chang liver (b)
[12] = test system: Escherichia coli ATCC 25922; assay: Antimicrobial activity, serial microdilutions, Ec; assay type: cell-based; conditions: Escherichia coli; for MIC: ATCC25922, read-out: Minimum Inhibitory Concentration (MIC); for MBC: ATCC25922, read-out: Minimum bactericidal and fungicidal concentrations (MBC, MFC)
Protocol: as §1

HuTu 80 [13] = assay: cells; conditions: Homo sapiens, HuTu80, 48 h, read-out: Cytotoxic Effects (IC50)
Hep G2 [14] = assay: cells; conditions: Homo sapiens, HepG2, 48 h, read-out: Cytotoxic Effects (IC50)
A549 [15] = test system: A549
SK-OV-3 [16] = assay: cells; conditions: Homo sapiens, SK-OV-3, 48 h, read-out: Cytotoxic Effects (IC50)
HuTu 80 [17] = conditions: calculated relative to the cell line Chang liver (b)
PANC-1 [18] = assay: cells; conditions: Homo sapiens, PANC-1, 48 h, read-out: Cytotoxic Effects (IC50)
[19] = test system: Pseudomonas aeruginosa ATCC 9027; assay: Antimicrobial activity, serial microdilutions, Pa; assay type: cell-based; design: key to Minimum Inhibitory Concentration (MIC) / Minimum bactericidal and fungicidal concentrations (MBC, MFC): – means non-active
Protocol: as §1

MCF-7 [20] = conditions: calculated relative to the cell line Chang liver (b)
PC3 [21] = assay: cells; conditions: Homo sapiens, PC-3, 48 h, read-out: Cytotoxic Effects (IC50), PC3, MTT assay, 48 h
MCF-7 [22] = assay: cells; conditions: Homo sapiens, MCF7, 48 h, read-out: Cytotoxic Effects (IC50)
SK-OV-3 [23] = test system: SK-OV-3
[24] = test system: Staphylococcus aureus ATCC 6538 P FDA 209P; assay: Antimicrobial activity, serial microdilutions, Sa; assay type: cell-based; conditions: Staphylococcus aureus; for MIC: read-out: Minimum Inhibitory Concentration (MIC); for MBC: read-out: Minimum bactericidal and fungicidal concentrations (MBC, MFC)
Protocol: as §1

DU-145 [25] = assay: cells; conditions: Homo sapiens, DU-145, 48 h, read-out: Cytotoxic Effects (IC50), DU-145, MTT assay, 48 h
DU-145 [26] = conditions: calculated relative to the cell line Chang liver (b)
[27] = reference normal cell line not marked at the place (ns cells)
[28] = calculated relative to the cell line Chang liver (b)

## CCCCCCCCC[P+](N(CC)CC)(N(CC)CC)N(CC)CC [4c, Tris(diethylamino)(nonyl)phosphonium iodide]
Hep G2 [1]
  selectivity index (SI): 2.0
[2]
  MIC: 3.9 ± 0.3 µM
  MBC: > 500 µM
T98G [3]
  IC50: 3200 ± 200 nM
MRSA-2
  MIC: 7.8 ± 0.6 µM
  MBC: 250 ± 20 µM
PC3 [4]
  selectivity index (SI): 2.7
A549 [5]
  IC50: 21100 ± 1500 nM
T98G [6]
  selectivity index (SI): 1.5
[7]; Ca
  Minimum Inhibitory Concentration (MIC): –
  Minimum bactericidal and fungicidal concentrations (MBC, MFC): –
M-HeLa [8]
  selectivity index (SI): 2.8
M-HeLa [9]
  IC50: 1700 ± 100 nM
MRSA-1
  MIC: 3.9 ± 0.4 µM
  MBC: 125 ± 10 µM
[10]
  MIC: 62.5 ± 5.2 µM
  MBC: 500 ± 48 µM
PANC-1 [11]
  selectivity index (SI): 2.8
[12]
  MIC: 500 ± 48 µM
  MBC: 500 ± 48 µM
HuTu 80 [13]
  IC50: 2600 ± 200 nM
Hep G2 [14]
  IC50: 2400 ± 100 nM
A549 [15]; [27]
  selectivity index (SI): ns (ns—no selectivity)
SK-OV-3 [16]
  IC50: 12100 ± 1100 nM
HuTu 80 [17]
  selectivity index (SI): 1.8
PANC-1 [18]
  IC50: 1700 ± 100 nM
[19]
  Minimum Inhibitory Concentration (MIC): –
  Minimum bactericidal and fungicidal concentrations (MBC, MFC): –
MCF-7 [20]
  selectivity index (SI): 2.5
PC3 [21]
  IC50: 1800 ± 100 nM
MCF-7 [22]
  IC50: 1900 ± 100 nM
SK-OV-3 [23]; [27]
  selectivity index (SI): ns (ns—no selectivity)
[24]
  MIC: 3.9 ± 0.3 µM
  MBC: 250 ± 18 µM

## CCCCCCCCCCCCCC[P+](N(CC)CC)(N(CC)CC)N(CC)CC [4e, Tris(diethylamino)(tetradecyl)phosphonium bromide]
Hep G2 [1]
  selectivity index (SI): 1.1
DU-145 [25]
  IC50: 400 ± 30 nM
[2]
  MIC: 0.5 ± 0.04 µM
  MBC: 7.8 ± 0.6 µM
T98G [3]
  IC50: 1000 ± 90 nM
MRSA-2
  MIC: 0.25 ± 0.02 µM
  MBC: 0.25 ± 0.02 µM
PC3 [4]
  selectivity index (SI): 1.0
A549 [5]
  IC50: 1700 ± 100 nM
T98G [6]
  selectivity index (SI): 1.7
[7]; Candida albicans, ATCC10231, read-out: Minimum Inhibitory Concentration (MIC)
  MIC: 1.9 ± 0.1 µM
[7]; Candida albicans, ATCC10231, read-out: Minimum bactericidal and fungicidal concentrations (MBC, MFC)
  MBC: 7.8 ± 0.6 µM
M-HeLa [8]
  selectivity index (SI): 4.3
M-HeLa [9]
  IC50: 400 ± 30 nM
MRSA-1
  MIC: 0.5 ± 0.04 µM
  MBC: 0.5 ± 0.04 µM
[10]
  MIC: 0.5 ± 0.04 µM
  MBC: 1.9 ± 0.1 µM
PANC-1 [11]
  selectivity index (SI): 4.3
[12]
  MIC: 15.6 ± 1.3 µM
  MBC: 62.5 ± 5.2 µM
HuTu 80 [13]
  IC50: 60 ± 5 nM
Hep G2 [14]
  IC50: 1500 ± 100 nM
A549 [15]; [28]
  selectivity index (SI): 1.0
SK-OV-3 [16]
  IC50: 1700 ± 100 nM
HuTu 80 [17]
  selectivity index (SI): 28
PANC-1 [18]
  IC50: 400 ± 30 nM
[19]; Pseudomonas aeruginosa, ATCC9027, read-out: Minimum Inhibitory Concentration (MIC)
  MIC: 7.8 ± 0.6 µM
[19]; Pseudomonas aeruginosa, ATCC9027, read-out: Minimum bactericidal and fungicidal concentrations (MBC, MFC)
  MBC: 7.8 ± 0.6 µM
MCF-7 [20]
  selectivity index (SI): 1.9
PC3 [21]
  IC50: 1700 ± 100 nM
MCF-7 [22]
  IC50: 900 ± 70 nM
SK-OV-3 [23]; [28]
  selectivity index (SI): 1.0
DU-145 [26]
  selectivity index (SI): 4.3
[24]
  MIC: 0.25 ± 0.01 µM
  MBC: 0.9 ± 0.07 µM
